According to the NIST ThermoML archive (doi:10.1021/acs.jced.5b00242):

Columns and labels:
[1] = Liquid; for mass density: Vibrating tube method
[2] = refractive index (Na D-line) (dimensionless); conditions: 101 kPa, Liquid, Standard Abbe refractometry
[3] = xn = mol fraction of the nth substance listed; conditions: 101 kPa, Liquid, x1 = 1; for mass density: Vibrating tube method
[4] = refractive index (Na D-line) (dimensionless); xn = mol fraction of the nth substance listed; conditions: 101 kPa, Liquid, Standard Abbe refractometry, x1 = 1

CCn1cc[n+](C)c1.O=C([O-])[C@@H]1CCCN1 [1-ethyl-3-methyl-1H-imidazolium L-prolinate]
[1], 101 kPa, Stabinger Viscometer
Conditions | viscosity [mPa·s]
293.15 K | 1928.4
298.15 K | 1194.6
303.15 K | 771.51
308.15 K | 517.61
313.15 K | 359.21
318.15 K | 256.92
323.15 K | 188.66
328.15 K | 141.76
333.15 K | 108.85
338.15 K | 85.12
343.15 K | 67.69
348.15 K | 54.73
353.15 K | 44.89

[1], 101.33 kPa
Conditions | mass density [kg/m3]
293.15 K | 1145.9
298.15 K | 1142.8
303.15 K | 1139.6
308.15 K | 1136.4
313.15 K | 1133.2
318.15 K | 1130.1
323.15 K | 1127.1
328.15 K | 1124
333.15 K | 1121
338.15 K | 1118
343.15 K | 1115
348.15 K | 1112
353.15 K | 1109.1

[2]
Conditions | refractive index
293.15 K | 1.52291
298.15 K | 1.52151
303.15 K | 1.52009
308.15 K | 1.5187
313.15 K | 1.51731
318.15 K | 1.51591
323.15 K | 1.51454
328.15 K | 1.51315
333.15 K | 1.51177
338.15 K | 1.51035
343.15 K | 1.50897
348.15 K | 1.50757
353.15 K | 1.5062

CCn1cc[n+](C)c1.N#C[C-](C#N)C#N [1-ethyl-3-methyl-1H-imidazolium tricyanomethanide]
[1], 101 kPa, Stabinger viscometer
Conditions | viscosity [mPa·s]
293.15 K | 16.62
298.15 K | 14.19
303.15 K | 12.18
308.15 K | 10.58
313.15 K | 9.02
318.15 K | 8.2
323.15 K | 7.31
328.15 K | 6.56
333.15 K | 5.72
338.15 K | 5.38
343.15 K | 4.91
348.15 K | 4.5
353.15 K | 3.98

[1], 101 kPa
Conditions | mass density [kg/m3]
293.15 K | 1085
298.15 K | 1081
303.15 K | 1077
308.15 K | 1074
313.15 K | 1070
318.15 K | 1067
323.15 K | 1064
328.15 K | 1060
333.15 K | 1057
338.15 K | 1054
343.15 K | 1050
348.15 K | 1047
353.15 K | 1043

[2]
Conditions | refractive index
293.15 K | 1.51454
298.15 K | 1.51286
303.15 K | 1.51114
308.15 K | 1.50938
313.15 K | 1.50765
318.15 K | 1.50595
323.15 K | 1.50419
328.15 K | 1.50255
333.15 K | 1.50087
338.15 K | 1.49921
343.15 K | 1.49757
348.15 K | 1.49593
353.15 K | 1.49429

CCn1cc[n+](C)c1.N#C[C-](C#N)C#N [1-ethyl-3-methyl-1H-imidazolium tricyanomethanide] + CC[n+]1ccn(C)c1.N[C@@H](CO)C(=O)[O-]
[3], Stabinger Viscometer
Conditions | viscosity [mPa·s]
293.15 K | 16.62
298.15 K | 14.19
303.15 K | 12.18
308.15 K | 10.58
313.15 K | 9.02
318.15 K | 8.2
323.15 K | 7.31
328.15 K | 6.56
333.15 K | 5.72
338.15 K | 5.38
343.15 K | 4.91
348.15 K | 4.5
353.15 K | 3.98

Conditions | mass density, [3] [kg/m3] | refractive index, [4]
293.15 K | 1084.6 | 1.51454
298.15 K | 1081 | 1.51286
303.15 K | 1077.5 | 1.51114
308.15 K | 1073.9 | 1.50938
313.15 K | 1070.4 | 1.50765
318.15 K | 1067.1 | 1.50595
323.15 K | 1063.7 | 1.50419
328.15 K | 1060.3 | 1.50255
333.15 K | 1056.9 | 1.50087
338.15 K | 1053.6 | 1.49921
343.15 K | 1050.2 | 1.49757
348.15 K | 1046.8 | 1.49593
353.15 K | 1043.4 | 1.49429

CCn1cc[n+](C)c1.N#C[C-](C#N)C#N [1-ethyl-3-methyl-1H-imidazolium tricyanomethanide] + CCn1cc[n+](C)c1.C[C@H](N)C(=O)[O-]
[3], Stabinger Viscometer
Conditions | viscosity [mPa·s]
293.15 K | 16.62
298.15 K | 14.19
303.15 K | 12.18
308.15 K | 10.58
313.15 K | 9.02
318.15 K | 8.2
323.15 K | 7.31
328.15 K | 6.56
333.15 K | 5.72
338.15 K | 5.38
343.15 K | 4.91
348.15 K | 4.5
353.15 K | 3.98

Conditions | mass density, [3] [kg/m3] | refractive index, [4]
293.15 K | 1084.6 | 1.51454
298.15 K | 1081 | 1.51286
303.15 K | 1077.5 | 1.51114
308.15 K | 1073.9 | 1.50938
313.15 K | 1070.4 | 1.50765
318.15 K | 1067.1 | 1.50595
323.15 K | 1063.7 | 1.50419
328.15 K | 1060.3 | 1.50255
333.15 K | 1056.9 | 1.50087
338.15 K | 1053.6 | 1.49921
343.15 K | 1050.2 | 1.49757
348.15 K | 1046.8 | 1.49593
353.15 K | 1043.4 | 1.49429

CCn1cc[n+](C)c1.N#C[C-](C#N)C#N [1-ethyl-3-methyl-1H-imidazolium tricyanomethanide] + CCn1cc[n+](C)c1.NCC(=O)[O-]
[3], Stabinger viscometer
Conditions | viscosity [mPa·s]
293.15 K | 16.62
298.15 K | 14.19
303.15 K | 12.18
308.15 K | 10.58
313.15 K | 9.02
318.15 K | 8.2
323.15 K | 7.31
328.15 K | 6.56
333.15 K | 5.72
338.15 K | 5.38
343.15 K | 4.91
348.15 K | 4.5
353.15 K | 3.98

Conditions | mass density, [3] [kg/m3] | refractive index, [4]
293.15 K | 1084.6 | 1.51454
298.15 K | 1081 | 1.51286
303.15 K | 1077.5 | 1.51114
308.15 K | 1073.9 | 1.50938
313.15 K | 1070.4 | 1.50765
318.15 K | 1067.1 | 1.50595
323.15 K | 1063.7 | 1.50419
328.15 K | 1060.3 | 1.50255
333.15 K | 1056.9 | 1.50087
338.15 K | 1053.6 | 1.49921
343.15 K | 1050.2 | 1.49757
348.15 K | 1046.8 | 1.49593
353.15 K | 1043.4 | 1.49429
